Active and inactive are the calls of the source.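 How the source made its calls: active means falling polarization with an AC50 at most ten times the sample's highest valid dose; inconclusive means flat curve at 30 to 70% inhibition, or poor fit; inactive means rising signal, flat weak curves, or AC50 past limit.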
Target: Golgi-associated PDZ and coiled-coil motif-containing protein (Homo sapiens) (UniProt Q9HD26)
Assay: CAL PDZ domain peptide-binding inhibitors, dose response, biochemical, fluorescence polarization, untagged CAL PDZ, dry powder (AID 602255)
Conditions: CAL PDZ / TMR peptide fluorescence polarization, 1 h; for activity change, negative = inhibition: at 35 µM (top of the series)

activity change, negative = inhibition | AC50 | SMILES
inactive | – | O=S(=O)(Nc1ccc(O)c2ccccc12)c1ccccc1
– | > 35 µM (inactive) | O=C(O)CSc1cc(NS(=O)(=O)c2ccc(Br)cc2)c2ccccc2c1O
inactive | – | O=S(=O)(Nc1cc(Sc2ccccc2)c(O)c2ccccc12)c1ccc(Cl)cc1
inactive | – | COc1ccc(S(=O)(=O)Nc2cc(SCC(=O)O)c(O)c3ccccc23)cc1

Source: PubChem BioAssay AID602255 (Broad Institute, 2012)
